Experimental findings from patent US11780895B2, “Targeted DNA demethylation and methylation” (The Jackson Laboratory, priority 2016, dated 2023) are described below.

In one experiment the test system is hMLH1 promoter. The experiment is described as follows: Bisulfite conversion and sequencing of the hMLH1 promoter region. The settings on record: untransfected HEK293T cells treated for 6 days. Type of experiment: cell-based, human. The text has this: Casilio-mediated delivery of demethylation enzymes alters methylation state of targeted genomic locus. Evidence that the shown Casilio-ME-induced activation of hMLH1 transcription is a result of TET1-mediated cytosine demethylation within the targeted promoter region came from DNA sequencing of hMLH1 promoter after bisulfite conversion. Bisulfite treatment of genomic DNA deaminates unmethylated cytosines to produce uracils that are subsequently replicated as thymine. However, methylated cytosines are protected from conversion to uracils, thus allowing one to determine cytosine methylation states at single-nucleotide resolution by direct sequencing.
To assess changes in methylation states of CpG island within hMLH1 promoter region after Casilio-ME-mediated transcription activation, time course experiment were carried out where cells were collected 3, 4, 5, and 6 days post transfection, for analysis of cytosine methylation as well as transcription activation, and protein expression. HEK293T were transfected with Casilio-ME components that includes Ct-fusion PUFa-TET1 effector and a combination of 2 sgRNAs (RNA guides 3 and 7).
Cell culture and transfection. […]

Another experiment concerns SOX2. The experiment is described as follows: SOX2 gene expression by quantitative reverse-transcription PCR after targeting Dnmt effectors to the SOX2 promoter. Type of experiment: cell-based. The following applies: with dCas9 and sgRNA-PBS targeting SOX2 promoter; compared with dCas9 direct fusions. How it is done: Establishment of a dCas9-expressing cell line. The day prior to transfection, Lenti-X 293T cells were seeded into 6-well plates at 1.2 million cells per well. The cells were transfected with the supercoiled packaging plasmids (pLP1 (gag/pol), pLP2 (rev), and VSV-G (envelope)) and a dCas9 lentiviral expression plasmid through Lipofectamine 3000 reagent (Invitrogen). At 6 h posttransfection, medium was exchanged for fresh. At 24 h posttransfection, 2 ml of medium containing the lentivirus were collected and centrifuged for 10 minutes at 2,000 rpm to remove cellular debris. The supernatant was filtered utilizing a […] pore filter (Millipore), and the lentivirus was frozen at −80° C. until needed. HEK293T cells, seeded into a 12-well plate at 150,000 cells per well, were transduced with 500 μl of the dCas9 lentivirus in culture medium supplemented with 5 μg/ml polybrene for 12 hours, and subsequently selected with Blasticidin antibiotics on the third day post transduction.
Transfection. HEK293T, and HEK293T/dCas9 cell lines were seeded into 12-well plates at 150,000 cells per well. […] At 3 day post-transfection, the cells were sorted for GFP (sgRNA expression constructs are marked by GFP) with fluorescence-activated cell sorting (FACS) and re-plated into 12 or 24-well plates.
Quantitative reverse-transcription PCR. […]

Consider `Nc1ncn([C@@H]2O[C@H](CO)[C@@H](O)[C@H]2O)c(=O)n1` [5′azacytidine, 5-Azacytidine], for which the “bisulfite conversion frequency within hMLH1 promoter region” value in the experiment on hMLH1 promoter is “increased bisulfite conversion frequency on multiple CpG sites”.

B1: Dnmt3a-PUF: Dnmt3a catalytic domain fused to the N-terminus of PUFa (protein)
chain: MGPANHDQEFDPPKVYPPVPAEKRKPIRVLSLFDGIATGLLVLKDLGIQVDRYIASEVCEDSITVGMVRHQGKIMYVGDVRSVTQKHIQEWGPFDLVIGGSPCNDLSIVNPARKGLYEGTGRLFFEFYRLLHDARPKEGDDRPFFWLFENVVAMGVSDKRDISRFLESNPVMIDAKEVSAAHRARYFWGNLPGMNRPLASTVNDKLELQECLEHGRIAKFSKVRTITTRSNSIKQGKDQHFPVFMNEKEDILWCTEMERVFGFPVHYTDVSNMSRLARQRLLGRSWSVPVIRHLFAPLKEYFACVIDGGGGSDPKKKRKVDPKKKRKVDPKKKRKVGSTGSRNDGGGGSGGGGSGGGGSGRAGILPPKKKRKVSRGRSRLLEDFRNNRYPNLQLREIAGHIMEFSQDQHGSRFIQLKLERATPAERQLVFNEILQAAYQLMVDVFGNYVIQKFFEFGSLEQKLALAERIRGHVLSLALQMYGSRVIEKALEFIPSDQQNEMVRELDGHVLKCVKDQNGNHVVQKCIECVQPQSLQFIIDAFKGQVFALSTHPYGCRVIQRILEHCLPDQTLPILEELHQHTEQLVQDQYGNYVIQHVLEHGRPEDKSKIVAEIRGNVLVLSQHKFASNVVEKCVTHASRTERAVLIDEVCTMNDGPHSALYTMMKDQYANYVVQKMIDVAEPGQRKIVMHKIRPHIATLRKYTYGKHILAKLEKYYMKNGVDLGDPKKKRKVDPKKKRKVGGRGGGGSGGGGSGGGGSGPA
Turning to B1, in the experiment on SOX2, the “repression of SOX2 gene expression” value is listed as “more robust repression of SOX2 gene expression compared to direct fusions”.
